Measurements as given in patent publication US20130296412A1, “Artemisinin-Like Derivatives with Cytotoxic and Anti-Angiogenic Properties” (DAFRA PHARMA N.V., priority 2010, published 2013).
Where two headings read alike, the source gives them in different places.

Experiments:
zebrafish embryos = test: Tg(fli1:EGFP) zebrafish embryo in vivo angiogenesis assay; conditions: for Anti-angiogenic effect (in words): zebrafish embryos, concentration range; for Concentration at which intersomitic vessel (ISV) formation was suppressed: as low as, toxicity evident above
Procedure: Tg(fli1:EGFP) zebrafish, which express enhanced green fluorescent protein (GFP) in their endothelial cells, were used as an in vivo model for angiogenesis. At 20 hours post-fertilization (hpf), zebrafish embryos (10 per well/condition) were bathed in fish media, containing a concentration range of each of the compounds or control. Compounds had been dissolved as stock solutions in DMSO, stored at room temperature, and serially diluted in fish media prior to use. The anti-angiogenic tyrosinase kinase inhibitor SU5416 (Pfizer), and a vehicle-alone control containing the maximum concentration of DMSO were used as controls in all experiments.
In the first sets of experiments, a broad range of concentrations were used to identify the maximum tolerable dose, based on toxicity to the embryos, visualized directly by light microscopy. Subsequent experiments were performed a minimum of two times. Live analyses of the embryos were performed under light and fluorescence microscopy at 28 hpf and 48 hpf to monitor viability, overall morphology, and pattern of swimming. Angiogenesis was evaluated visually by fluorescence microscopy.
The developmental growth and patterning of the dorsal aorta, posterior cardinal vein, intersomitic vessels (ISV), and vascular plexus (VP) were monitored, as was the heart rate, and blood flow.
Eight compounds (4, 7, 8, 9, 10, 11, 12 and 15) were compared to artesunate for their anti-angiogenic potential using an in vivo zebrafish embryo model system (Table III blow). DMSO at concentrations of 0.5, 1, and 2% was used as vehicle control. No effects were observed on overall morphology, heart rate, blood flow, or angiogenesis in control embryos. The anti-angiogenic agent SU5416 was used as a positive control.

[1] = system: P-gp expressed in porcine capillaries; test: Transport of NBD-CSA into porcine brain capillary lumens (confocal microscopy); assay type: cell-based
Description: Luminal P-gp was inhibited by a well-known selective P-gylcoprotein inhibitor, PSC-833.

CCRF-CEM leukemia cells = test: XTT cytotoxicity assay, drug-sensitive cells; assay type: cell-based, human
Procedure: (§1) Multidrug-resistant, P-glycoprotein-overexpressing CEM/ADR5000 cells and their parental, drug-sensitive counterpart, CCRF-CEM cells were used. The cell lines were provided by Dr. Daniel Steinbach (University of Ulm, Ulm, Germany).
(§2) Doxorubicin resistance of CEM/ADR5000 was maintained as described. […] The cell lines were maintained in RPMI medium (Life Technologies) supplemented with 10% FCS in a humidified 7% CO2 atmosphere at 37° C. Cells were passaged twice weekly. All experiments were done with cells in the logarithmic growth
(§3) Cytotoxicity was assessed using the 2,3-bis[2-methoxy-4-nitro-5-sulfophenyl]-2H-tetrazolium-5-carboxanilide inner salt (XTT) assay kit (Roche, Indianapolis, Ind.), which measures the metabolic activity of viable cells. Toxicity of compounds was determined with the Cell Proliferation Kit II (Roche Diagnostics, Mannheim, Germany), according to the manufacturer's instructions.
(§4) Fresh stock solutions of each compound were prepared in DMSO at a concentration of 100 mM, and a dilution series was prepared in DMEM. Cells were suspended at a final concentration of 1×10^5 cells/ml, and 100 ml were aliquoted per well into a 96-well culture plate (Costar, Corning, USA). Marginal wells were filled with 100 μL of media to minimize evaporation. A row of wells with cells was left untreated and another row of wells with cells was treated with 1 μL DMSO, the latter serving as a solvent control. All studies were performed in duplicate, in a range of concentrations, and in two independent experiments with different batches of cells.
(§5) The ligand binding module of Sigma plot software (version 10.0) was used for analysis.
(§6) All compounds were tested both towards drug-sensitive CCRF-CEM leukemia cells and their multidrug-resistant subline, CEM/ADR5000.

[2] = system: CEM/ADR5000 leukemia cells (P-glycoprotein-overexpressing); test: XTT cytotoxicity assay, multidrug-resistant cells; assay type: cell-based, human; conditions: for Degree of resistance: CEM/ADR5000 versus CCRF-CEM
Procedure: as §1, §2, §3
as §4, with “Cells were suspended at a final concentration of 1×10^5 cells/ml, and 100 ml were aliquoted per well into a 96-well culture plate (Costar, Corning, USA).” left out
as §5, §6

P-glycoprotein (P-gp) [3] = target: T1, P-glycoprotein (P-gp) (Homo sapiens, UniProt P08183); test: Calcein-AM assay with flow cytometry in CEM/ADR5000 cells; conditions: for EC max (intracellular calcein fluorescence compared to untreated controls) / EC50: CEM/ADR5000 cells, flow cytometry; for EC50: read-out: EC50 calcein-AM assay
Procedure: (§7) The intracellular accumulation of calcein inside the cells is measured by using FACS analysis. The points indicate mean values of fluorescent effect, vertical lines show standard error calculated on the base of two independent experiment replicates. The effect corresponds to a control of cells which were treated only with calcein.
(§8) Test compounds were dissolved in DMSO as stock solutions and further dilutions were made with DMEM/HAM's F12 1:1 (Biochrom). […] A range of concentrations of test compound in a volume of 300-600 μL cell suspension were added, followed by a 15 min incubation at 37° C. Calcein-AM (300 μL) (MoBiTec, Göttingen, Germany) in DMEM/HAM's F12 1:1 was added to a final concentration of 1 μM and incubated for 30 min at 37° C.
(§9) For the calcein-AM assay using flow cytometry, the cell density of suspensions in DMEM/Ham's F12 1:1 was 2.5×10^7 cells/ml.
(§10) Gating on forward and side scatter in concert with propidium iodide staining allowed distinguishing live endothelial cells.
(§11) Twenty thousand cells were sorted in each run, and data were processed and analyzed with CellQuest (Franklin Lakes, N.J., USA). All fluorescence signals were corrected for background fluorescence. Calcein-AM auto-hydrolysis was measured in control samples (n=6) without cells.

HUVEC cells = test: VEGF-induced HUVEC proliferation/viability assay (WST1); assay type: cell-based, human; conditions: for Inhibition of proliferation and survival of HUVECs: 30 ng/ml VEGF165, 0.5-100 μM, 96 hrs
Procedure: Single donor HUVEC cells were purchased from Lonza (Breda, Netherlands). Cells were seeded at 5,000 cells per well in 96-well microtiterplates in EGM-2EV medium (Invitrogen). Upon adherence the cells were gently washed twice with PBS and starved overnight in EGM-2EV medium with reduced FBS content (0.1%; starvation medium).
After 96 hrs, cell growth was quantified using the WST1 Rapid cell proliferation kit (Calbiochem), and was expressed in percentage of the control value (VEGF alone). Experiments were carried out in triplets.
To further evaluate the anti-angiogenic potential of the present novel compounds, proliferation and survival of human umbilical vein endothelial cells (HUVECs) treated with VEGF and two compounds that were very active in the zebrafish model were assayed.

P-glycoprotein (P-gp) [4] = target: T1, P-glycoprotein (P-gp)
Procedure: as §7, §8, §9, §10, §11

[5] = multidrug-resistant CEM/ADR5000 cells, XTT, read-out: IC50 CEM/ADR5000
[6] = Homo sapiens, ADR5000, read-out: IC50 CEM/ADR5000

T1 sequence (P08183 whole entry): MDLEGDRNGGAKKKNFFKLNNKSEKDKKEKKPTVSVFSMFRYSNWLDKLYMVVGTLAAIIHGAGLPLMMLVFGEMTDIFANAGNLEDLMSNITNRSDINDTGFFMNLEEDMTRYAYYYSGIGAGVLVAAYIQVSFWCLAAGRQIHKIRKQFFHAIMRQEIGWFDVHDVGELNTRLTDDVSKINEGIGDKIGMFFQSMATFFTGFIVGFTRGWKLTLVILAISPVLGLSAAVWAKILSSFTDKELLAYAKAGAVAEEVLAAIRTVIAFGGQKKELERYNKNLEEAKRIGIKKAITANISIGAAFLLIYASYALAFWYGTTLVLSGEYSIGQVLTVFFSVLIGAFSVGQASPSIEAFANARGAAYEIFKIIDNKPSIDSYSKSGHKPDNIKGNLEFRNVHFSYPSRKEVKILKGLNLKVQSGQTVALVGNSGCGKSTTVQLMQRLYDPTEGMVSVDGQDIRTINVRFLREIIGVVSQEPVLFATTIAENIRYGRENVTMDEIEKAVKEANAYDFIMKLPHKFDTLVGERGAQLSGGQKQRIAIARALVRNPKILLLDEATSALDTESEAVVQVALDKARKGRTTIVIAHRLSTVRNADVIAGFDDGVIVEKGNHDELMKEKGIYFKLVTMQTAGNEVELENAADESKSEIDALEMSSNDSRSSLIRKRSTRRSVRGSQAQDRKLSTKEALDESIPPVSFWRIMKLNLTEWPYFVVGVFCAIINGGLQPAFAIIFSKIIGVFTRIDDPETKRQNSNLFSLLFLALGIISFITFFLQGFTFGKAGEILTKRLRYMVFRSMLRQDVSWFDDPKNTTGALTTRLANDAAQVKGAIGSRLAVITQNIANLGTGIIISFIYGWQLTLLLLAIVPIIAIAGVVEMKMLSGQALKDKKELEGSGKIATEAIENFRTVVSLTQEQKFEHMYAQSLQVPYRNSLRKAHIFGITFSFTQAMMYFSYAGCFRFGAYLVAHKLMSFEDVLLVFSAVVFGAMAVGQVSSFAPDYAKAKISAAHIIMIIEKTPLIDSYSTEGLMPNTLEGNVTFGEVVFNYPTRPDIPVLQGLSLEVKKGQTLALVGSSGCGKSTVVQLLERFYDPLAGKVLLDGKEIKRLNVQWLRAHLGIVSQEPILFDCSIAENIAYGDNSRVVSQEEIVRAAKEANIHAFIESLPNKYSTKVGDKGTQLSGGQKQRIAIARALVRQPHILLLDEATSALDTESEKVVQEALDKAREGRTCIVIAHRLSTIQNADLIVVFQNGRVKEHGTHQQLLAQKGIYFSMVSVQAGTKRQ

Cc1cc(C)c(/C=C2\C(=O)Nc3ccccc32)[nH]1 [SU5416, reference compound]
Formation of intersomitic vessels (ISVs) at 28 hpf (zebrafish embryos; 10 μg/ml, 28 hpf): completely blocked
ISV sprouting at 48 hpf compared to control embryos (zebrafish embryos; 10 μg/ml, 48 hpf): sprouted only minimally

C[C@H]1C(OC(=O)C(Cl)Cl)O[C@@H]2O[C@@]3(C)CC[C@H]4[C@H](C)CCC1[C@@]24OO3 (stereo partly shown) [Compound 8, 10-Dihydroartemisinyl 2′,2′-Dichloroacetate]
Anti-angiogenic effect (in words) (zebrafish embryos): dose-dependent anti-angiogenic effects
Inhibition of luminal P-gp (NBD-CSA in capillary lumen) [1]: almost empty lumen

CCC(C)OC1OC2OC3(C)CCC4C(C)CCC(C1C)C24OO3 (stereo not shown) [Compound 15, 10-(2′-Butyloxy)Dihydroartemisinin]
IC50 (CCRF-CEM leukemia cells): 16.7 ± 7.34 µM
Degree of resistance [2]: 0.47
IC50 [2, 5]: 7.96 ± 3.76 µM
Dead = number of dead embryos up to 48 hpf (zebrafish embryos; 1.0 μg/ml, N = 10 embryos): 0
Vasc. Defects = number of surviving embryos with vascular defects (zebrafish embryos; 1.0 μg/ml, N = 10 embryos): 0
Dead = number of dead embryos up to 48 hpf (zebrafish embryos; 10 μg/ml, N = 10 embryos): 1
Vasc. Defects = number of surviving embryos with vascular defects (zebrafish embryos; 10 μg/ml, N = 10 embryos): 0
Dead = number of dead embryos up to 48 hpf (zebrafish embryos; 25 μg/ml, N = 10 embryos): 0
Vasc. Defects = number of surviving embryos with vascular defects (zebrafish embryos; 25 μg/ml, N = 10 embryos): 0
Inhibition of luminal P-gp (NBD-CSA in capillary lumen) [1]: almost empty lumen
EC max (intracellular calcein fluorescence compared to untreated controls) (P-glycoprotein (P-gp) [3]): 1180 ± 178.7%
EC50 (P-glycoprotein (P-gp) [3]): 61.8 ± 9.62 µM

CCCC(CCC)C(=O)OC1O[C@@H]2O[C@@]3(C)CC[C@H]4[C@H](C)CCC([C@H]1C)[C@@]24OO3 (stereo partly shown) [Compound 11, 10-Dihydroartemisinyl 2′-Propylpentanoate]
Degree of resistance [2]: 1.23
Dead = number of dead embryos up to 48 hpf (zebrafish embryos; 10 μg/ml, N = 30 embryos): 22
Concentration at which intersomitic vessel (ISV) formation was suppressed (zebrafish embryos): 1 µg/mL
Anti-angiogenic effect (in words) (zebrafish embryos): dose-dependent anti-angiogenic effects

CC1CCC2C(C)C(SCCN)OC3OC4(C)CCC1C32OO4 (stereo not shown) [Compound 16, 10-Dihydroartemisinyl Thioethylamine]
IC50 (CCRF-CEM leukemia cells): 0.86 ± 0.19 µM
Degree of resistance [2]: 3.88
IC50 [2, 5]: 3.34 ± 0.64 µM
EC max (intracellular calcein fluorescence compared to untreated controls) (P-glycoprotein (P-gp) [3]): 1011 ± 106.3%
EC50 (P-glycoprotein (P-gp) [3]): 27.2 ± 4.69 µM

C[C@H]1C(OC(=O)c2ccccc2)O[C@@H]2O[C@@]3(C)CC[C@H]4[C@H](C)CCC1[C@@]24OO3 (stereo partly shown) [Compound 13, 10-dihydroartemisinyl benzoate]
Degree of resistance [2]: 7.79

CC1=CO[C@@H]2O[C@@]3(C)CC[C@H]4[C@H](C)CC[C@@H]1[C@@]24OO3 [Compound 4, Anhydrodihydroartemisinin]
IC50 (CCRF-CEM leukemia cells; Homo sapiens): 83.4 ± 7.51 µM
IC50 [2, 6]: 33.6 ± 0.68 µM
Dead = number of dead embryos up to 48 hpf (zebrafish embryos; 50 μg/ml, N = 10 embryos): 2
Vasc. Defects = number of surviving embryos with vascular defects (zebrafish embryos; 50 μg/ml, N = 10 embryos): 0
Dead = number of dead embryos up to 48 hpf (zebrafish embryos; 75 μg/ml, N = 10 embryos): 5
Other defects observed (zebrafish embryos; 75 μg/ml, N = 10 embryos): B, E
Vasc. Defects = number of surviving embryos with vascular defects (zebrafish embryos; 75 μg/ml, N = 10 embryos): 0

CC(=O)OC1O[C@@H]2O[C@@]3(C)CC[C@H]4[C@H](C)CCC([C@H]1C)[C@@]24OO3 (stereo partly shown) [Compound 7, 10-Dihydroartemisinyl acetate]
Degree of resistance [2]: 12.83
Anti-angiogenic effect (in words) (zebrafish embryos): dose-dependent anti-angiogenic effects
Inhibition of proliferation and survival of HUVECs (HUVEC cells): inhibited the proliferation and survival of HUVECs significantly stronger than artemisinin

CC(C)C(=O)OC1O[C@@H]2O[C@@]3(C)CC[C@H]4[C@H](C)CCC([C@H]1C)[C@@]24OO3 (stereo partly shown) [Compound 10]
Degree of resistance [2]: 22.46
Anti-angiogenic effect (in words) (zebrafish embryos): dose-dependent anti-angiogenic effects
Inhibition of proliferation and survival of HUVECs (HUVEC cells): inhibited the proliferation and survival of HUVECs significantly stronger than artemisinin

C[C@H]1[C@H](OC(=O)CCC(=O)O)O[C@@H]2O[C@@]3(C)CC[C@H]4[C@H](C)CC[C@@H]1[C@@]24OO3 [Artesunate, artesunate, reference compound]
Dead = number of dead embryos up to 48 hpf (zebrafish embryos; 25 μg/ml, N = 20 embryos): 1
Vasc. Defects = number of surviving embryos with vascular defects (zebrafish embryos; 25 μg/ml, N = 20 embryos): 0
Dead = number of dead embryos up to 48 hpf (zebrafish embryos; 50 μg/ml, N = 20 embryos): 1
Vasc. Defects = number of surviving embryos with vascular defects (zebrafish embryos; 50 μg/ml, N = 20 embryos): 2
Dead = number of dead embryos up to 48 hpf (zebrafish embryos; 100 μg/ml, N = 20 embryos): 1
Vasc. Defects = number of surviving embryos with vascular defects (zebrafish embryos; 100 μg/ml, N = 20 embryos): 6
Dead = number of dead embryos up to 48 hpf (zebrafish embryos; 200 μg/ml, N = 10 embryos): 1
Vasc. Defects = number of surviving embryos with vascular defects (zebrafish embryos; 200 μg/ml, N = 10 embryos): 9
Anti-angiogenic effect (in words) (zebrafish embryos): dose-dependent anti-angiogenic effects
Behaviour in cell culture medium (HUVEC cells; starvation medium EGM-2EV): precipitation from the cell culture medium
P-gp inhibition judged by calcein fluorescence (P-glycoprotein (P-gp) [4]): do not act as P-gp inhibitors

C[C@@H]1CC[C@H]2[C@@H](C)CO[C@@H]3O[C@@]4(C)CC[C@@H]1[C@]32OO4 [Compound 3, Deoxoartemisinin]
IC50 (CCRF-CEM leukemia cells; Homo sapiens): 241 ± 50.7 µM
Degree of resistance [2]: 0.49
IC50 [2, 6]: 117 ± 8.2 µM

CCCC(=O)OC1O[C@@H]2O[C@@]3(C)CC[C@H]4[C@H](C)CCC([C@H]1C)[C@@]24OO3 (stereo partly shown) [Compound 9, 10-Dihydroartemisinyl Butyrate]
Degree of resistance [2]: 0.51
Dead = number of dead embryos up to 48 hpf (zebrafish embryos; 25 μg/ml, N = 30 embryos): 17
Concentration at which intersomitic vessel (ISV) formation was suppressed (zebrafish embryos): 1 µg/mL
Anti-angiogenic effect (in words) (zebrafish embryos): dose-dependent anti-angiogenic effects

C/C=C/C[C@@H](C)C(=O)[C@H]1C(=O)N[C@@H](C(C)C)C(=O)N(C)CC(=O)N(C)[C@@H](CC(C)C)C(=O)N[C@@H](C(C)C)C(=O)N(C)[C@@H](CC(C)C)C(=O)N[C@@H](C)C(=O)N[C@H](C)C(=O)N(C)[C@@H](CC(C)C)C(=O)N(C)[C@@H](CC(C)C)C(=O)N(C)[C@@H](C(C)C)C(=O)N1C [PSC-833, reference compound]
Inhibition of luminal P-gp (NBD-CSA in capillary lumen) [1]: inhibited

C[C@@H]1CC[C@H]2[C@@H](C)C(=O)O[C@@H]3O[C@@]4(C)CC[C@@H]1[C@]32OO4 [Compound 1, artemisinin]
IC50 (CCRF-CEM leukemia cells; Homo sapiens): 148 ± 16.6 µM
IC50 [2, 6]: 94.9 ± 30.5 µM
P-gp inhibition judged by calcein fluorescence (P-glycoprotein (P-gp) [3]; CCRF-CEM and CEM/ADR5000 cells, FIG. 5): do not act as P-gp inhibitors
EC max (intracellular calcein fluorescence compared to untreated controls) (P-glycoprotein (P-gp) [3]): 114.1 ± 2.85^ %

C[C@H]1C(OC(=O)C(C)(C)C)O[C@@H]2O[C@@]3(C)CC[C@H]4[C@H](C)CCC1[C@@]24OO3 (stereo partly shown) [Compound 12, 10-Dihydroartemisinyl 2′,2′-Dimethylpropianate]
Degree of resistance [2]: 2.65
Dead = number of dead embryos up to 48 hpf (zebrafish embryos; 1.0 μg/ml, N = 10 embryos): 0
Anti-angiogenic effect (in words) (zebrafish embryos): a specific anti-angiogenic effect was not observed
Toxicity to embryos (in words) (zebrafish embryos; zebrafish, in vivo): the most toxic at comparable doses

C[C@H]1C(OC(=O)N(C)C)O[C@@H]2O[C@@]3(C)CC[C@H]4[C@H](C)CCC1[C@@]24OO3 (stereo partly shown) [Compound 14]
Degree of resistance [2]: 19.76
